For 1 compound, Ki results are on record in BindingDB's records for PubMed 7903385 (Creighton University, 1993).

For this test, the target named is T1, Alpha-2A adrenergic receptor (Sus scrofa, UniProt P18871).
T1 sequence (P18871 whole entry): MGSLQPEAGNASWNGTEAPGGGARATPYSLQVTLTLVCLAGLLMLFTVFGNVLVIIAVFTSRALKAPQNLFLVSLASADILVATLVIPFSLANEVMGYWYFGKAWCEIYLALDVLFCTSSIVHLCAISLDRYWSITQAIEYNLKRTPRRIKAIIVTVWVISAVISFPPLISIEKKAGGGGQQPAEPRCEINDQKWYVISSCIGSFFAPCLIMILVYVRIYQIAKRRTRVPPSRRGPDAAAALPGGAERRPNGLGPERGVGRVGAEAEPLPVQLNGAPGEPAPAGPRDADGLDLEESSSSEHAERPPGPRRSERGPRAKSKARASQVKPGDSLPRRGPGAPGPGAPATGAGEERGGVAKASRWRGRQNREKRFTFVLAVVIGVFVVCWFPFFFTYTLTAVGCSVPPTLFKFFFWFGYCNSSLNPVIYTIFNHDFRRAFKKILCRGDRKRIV

`C=Cc1sc2ccc(Cl)c3c2c1CN(C)CC3` [SKF 104856] returned a Ki of 54.5 nM.
